Legend:
wild oat = assay: Test B pre/postemergence wild oat; type: in vivo, Avena fatua
How it was run: (§1)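 Herbicidal effect was estimated by eye on a ten-point control scale after plants spent twelve to sixteen days in a greenhouse following soil or foliar treatment. Foliar sprays targeted plants at one to four leaves; all doses were formulated in a non-phytotoxic solvent with surfactant.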

morningglory = assay: Test B pre/postemergence morningglory; type: in vivo, Ipomoea hederacea
How it was run: as §1

bedstraw = assay: Test B pre/postemergence bedstraw; type: in vivo, Galium aparine
How it was run: as §1

purple nutsedge = assay: Test B pre/postemergence purple nutsedge; type: in vivo, Cyperus rotundus
How it was run: as §1

surinam grass = assay: Test B pre/postemergence surinam grass; type: in vivo, Brachiaria decumbens
How it was run: as §1

giant foxtail = assay: Test B pre/postemergence giant foxtail; type: in vivo, Setaria faberii
How it was run: as §1

sugar beet = assay: Test B pre/postemergence sugar beet; type: in vivo, Beta vulgaris
How it was run: as §1

pigweed = assay: Test B pre/postemergence pigweed; type: in vivo, Amaranthus retroflexus
How it was run: as §1

blackgrass = assay: Test B pre/postemergence blackgrass; type: in vivo, Alopecurus myosuroides
How it was run: as §1

soybean = assay: Test B pre/postemergence soybean; type: in vivo, Glycine max
How it was run: as §1

wheat = assay: Test B pre/postemergence wheat; type: in vivo, Triticum aestivum
How it was run: as §1

rape = assay: Test B pre/postemergence rape; type: in vivo, Brassica napus
How it was run: as §1

corn = assay: Test B pre/postemergence corn; type: in vivo, Zea mays
How it was run: as §1

cocklebur = assay: Test B pre/postemergence cocklebur; type: in vivo, Xanthium strumarium
How it was run: as §1

crabgrass = assay: Test B pre/postemergence crabgrass; type: in vivo, Digitaria sanguinalis
How it was run: as §1

velvetleaf = assay: Test B pre/postemergence velvetleaf; type: in vivo, Abutilon theophrasti
How it was run: as §1

[1] = Postemergence, Rate 62 g/ha, scale 0 to 10, 0 is no effect, 10 is complete control
[2] = Postemergence, Rate 500 g/ha, scale 0 (no effect) to 10 (complete control)
[3] = Rate 62 g/ha, Preemergence, scale 0 to 10
[4] = Rate 125 g/ha, Preemergence, scale 0 to 10 (0 no effect, 10 complete control)
[5] = Rate 250 g/ha, Postemergence, scale 0 to 10, 0 is no effect, 10 is complete control
[6] = Rate 500 g/ha, Preemergence, scale 0 to 10 (0 no effect, 10 complete control)
[7] = Postemergence, Rate 125 g/ha, scale of 0 to 10 where 0 is no effect and 10 is complete control
[8] = Preemergence, Rate 250 g/ha, scale 0 (no effect) to 10 (complete control)
[9] = Rate 62 g/ha, Preemergence, scale 0 (no effect) to 10 (complete control)
[10] = Rate 500 g/ha, Postemergence, scale 0 to 10, 0 is no effect, 10 is complete control

CCOC(CC)n1c(=O)on(C(=O)N(c2ccccc2)C(C)C)c1=O (stereo not shown) [Compound 773]
Plant response rating, Wild oats (wild oat; [1]): 0
Wild oats plant response rating (wild oat; [2]): 0
Wild oats plant response rating (wild oat; [3]): 0
Wild oats plant response rating (wild oat; [4]): 0
Wild oats plant response rating (wild oat; [5]): 0
Wild oats plant response rating (wild oat; [6]): 0
Plant response rating, Morningglory (morningglory; [1]): 0
Morningglory plant response rating (morningglory; [7]): 0
Morningglory plant response rating (morningglory; [2]): 0
Morningglory plant response rating (morningglory; [3]): 0
Morningglory plant response rating (morningglory; [4]): 0
Morningglory plant response rating (morningglory; [5]): 0
Morningglory plant response rating (morningglory; [6]): 0
Plant response rating, Bedstraw (bedstraw; [1]): 0
Bedstraw plant response rating (bedstraw; [7]): 0
Bedstraw plant response rating (bedstraw; [2]): 0
Bedstraw plant response rating (bedstraw; [8]): 0
Bedstraw plant response rating (bedstraw; [3]): 0
Bedstraw plant response rating (bedstraw; [4]): 0
Bedstraw plant response rating (bedstraw; [5]): 0
Bedstraw plant response rating (bedstraw; [6]): 0
Plant response rating, Nutsedge (purple nutsedge; [1]): 0
Nutsedge plant response rating (purple nutsedge; [7]): 0
Nutsedge plant response rating (purple nutsedge; [2]): 0
Nutsedge plant response rating (purple nutsedge; [3]): 0
Nutsedge plant response rating (purple nutsedge; [4]): 0
Nutsedge plant response rating (purple nutsedge; [5]): 0
Nutsedge plant response rating (purple nutsedge; [6]): 0
Plant response rating, B. signalgrass (surinam grass; [1]): 0
B. signalgrass plant response rating (surinam grass; [7]): 0
B. signalgrass plant response rating (surinam grass; [8]): 0
B. signalgrass plant response rating (surinam grass; [9]): 0
B. signalgrass plant response rating (surinam grass; [4]): 0
B. signalgrass plant response rating (surinam grass; [5]): 0
B. signalgrass plant response rating (surinam grass; [10]): 0
B. signalgrass plant response rating (surinam grass; [6]): 0
Plant response rating, Giant foxtail (giant foxtail; [1]): 0
Giant foxtail plant response rating (giant foxtail; [7]): 0
Giant foxtail plant response rating (giant foxtail; [2]): 0
Giant foxtail plant response rating (giant foxtail; [8]): 0
Giant foxtail plant response rating (giant foxtail; [3]): 0
Giant foxtail plant response rating (giant foxtail; [4]): 0
Giant foxtail plant response rating (giant foxtail; [5]): 0
Giant foxtail plant response rating (giant foxtail; [6]): 0
Plant response rating, Sugarbeets (sugar beet; [1]): 0
Sugarbeets plant response rating (sugar beet; [2]): 0
Sugarbeets plant response rating (sugar beet; [3]): 0
Sugarbeets plant response rating (sugar beet; [4]): 0
Sugarbeets plant response rating (sugar beet; [5]): 0
Sugarbeets plant response rating (sugar beet; [6]): 0
Plant response rating, Redroot pigweed (pigweed; [1]): 0
Redroot pigweed plant response rating (pigweed; [7]): 0
Redroot pigweed plant response rating (pigweed; [2]): 0
Redroot pigweed plant response rating (pigweed; [3]): 0
Redroot pigweed plant response rating (pigweed; [4]): 0
Redroot pigweed plant response rating (pigweed; [5]): 0
Redroot pigweed plant response rating (pigweed; [6]): 0
Plant response rating, Blackgrass (blackgrass; [1]): 0
Blackgrass plant response rating (blackgrass; [7]): 0
Blackgrass plant response rating (blackgrass; [2]): 0
Blackgrass plant response rating (blackgrass; [8]): 0
Blackgrass plant response rating (blackgrass; [3]): 0
Blackgrass plant response rating (blackgrass; [4]): 0
Blackgrass plant response rating (blackgrass; [5]): 0
Blackgrass plant response rating (blackgrass; [6]): 0
Plant response rating, Soybean (soybean; [1]): 0
Soybean plant response rating (soybean; [2]): 0
Soybean plant response rating (soybean; [3]): 0
Soybean plant response rating (soybean; [4]): 0
Soybean plant response rating (soybean; [5]): 0
Soybean plant response rating (soybean; [6]): 0
Plant response rating, Wheat (wheat; [1]): 0
Wheat plant response rating (wheat; [2]): 0
Wheat plant response rating (wheat; [3]): 0
Wheat plant response rating (wheat; [4]): 0
Wheat plant response rating (wheat; [5]): 0
Wheat plant response rating (wheat; [6]): 0
Plant response rating, Rape (rape; [1]): 0
Rape plant response rating (rape; [7]): 0
Rape plant response rating (rape; [2]): 0
Rape plant response rating (rape; [3]): 0
Rape plant response rating (rape; [4]): 0
Rape plant response rating (rape; [5]): 0
Rape plant response rating (rape; [6]): 0
Plant response rating, Corn (corn; [1]): 0
Corn plant response rating (corn; [7]): 0
Corn plant response rating (corn; [2]): 0
Corn plant response rating (corn; [8]): 0
Corn plant response rating (corn; [3]): 0
Corn plant response rating (corn; [4]): 0
Corn plant response rating (corn; [5]): 0
Corn plant response rating (corn; [6]): 0
Plant response rating, Cocklebur (cocklebur; [1]): 0
Cocklebur plant response rating (cocklebur; [7]): 0
Cocklebur plant response rating (cocklebur; [2]): 0
Cocklebur plant response rating (cocklebur; [8]): 0
Cocklebur plant response rating (cocklebur; [3]): 0
Cocklebur plant response rating (cocklebur; [4]): 0
Cocklebur plant response rating (cocklebur; [5]): 0
Cocklebur plant response rating (cocklebur; [6]): 0
Plant response rating, Crabgrass (crabgrass; [1]): 0
Crabgrass plant response rating (crabgrass; [7]): 0
Crabgrass plant response rating (crabgrass; [2]): 0
Crabgrass plant response rating (crabgrass; [8]): 0
Crabgrass plant response rating (crabgrass; [3]): 0
Crabgrass plant response rating (crabgrass; [4]): 0
Crabgrass plant response rating (crabgrass; [5]): 0
Crabgrass plant response rating (crabgrass; [6]): 0
Plant response rating, Velvetleaf (velvetleaf; [1]): 0
Velvetleaf plant response rating (velvetleaf; [2]): 0
Velvetleaf plant response rating (velvetleaf; [3]): 0
Velvetleaf plant response rating (velvetleaf; [4]): 0
Velvetleaf plant response rating (velvetleaf; [5]): 0
Velvetleaf plant response rating (velvetleaf; [6]): 0

CC(C)N(C(=O)n1oc(=O)n(CCCCCl)c1=O)c1ccc(Cl)cc1 [Compound 791]
Plant response rating, Wild oats (wild oat; [1]): 0
Wild oats plant response rating (wild oat; [2]): 0
Wild oats plant response rating (wild oat; [3]): 0
Wild oats plant response rating (wild oat; [4]): 0
Wild oats plant response rating (wild oat; [5]): 0
Plant response rating, Morningglory (morningglory; [1]): 3
Morningglory plant response rating (morningglory; [7]): 3
Morningglory plant response rating (morningglory; [2]): 9
Morningglory plant response rating (morningglory; [3]): 0
Morningglory plant response rating (morningglory; [4]): 0
Morningglory plant response rating (morningglory; [5]): 9
Morningglory plant response rating (morningglory; [6]): 0
Plant response rating, Bedstraw (bedstraw; [1]): 0
Bedstraw plant response rating (bedstraw; [2]): 3
Bedstraw plant response rating (bedstraw; [4]): 0
Bedstraw plant response rating (bedstraw; [5]): 3
Plant response rating, Nutsedge (purple nutsedge; [1]): 0
Nutsedge plant response rating (purple nutsedge; [7]): 0
Nutsedge plant response rating (purple nutsedge; [2]): 0
Nutsedge plant response rating (purple nutsedge; [3]): 0
Nutsedge plant response rating (purple nutsedge; [4]): 0
Nutsedge plant response rating (purple nutsedge; [5]): 0
Nutsedge plant response rating (purple nutsedge; [6]): 0
Plant response rating, B. signalgrass (surinam grass; [1]): 0
B. signalgrass plant response rating (surinam grass; [7]): 0
B. signalgrass plant response rating (surinam grass; [8]): 0
B. signalgrass plant response rating (surinam grass; [9]): 0
B. signalgrass plant response rating (surinam grass; [4]): 0
B. signalgrass plant response rating (surinam grass; [5]): 0
B. signalgrass plant response rating (surinam grass; [10]): 0
Plant response rating, Giant foxtail (giant foxtail; [1]): 0
Giant foxtail plant response rating (giant foxtail; [7]): 2
Giant foxtail plant response rating (giant foxtail; [2]): 9
Giant foxtail plant response rating (giant foxtail; [8]): 10
Giant foxtail plant response rating (giant foxtail; [3]): 10
Giant foxtail plant response rating (giant foxtail; [4]): 10
Giant foxtail plant response rating (giant foxtail; [5]): 8
Giant foxtail plant response rating (giant foxtail; [6]): 10
Plant response rating, Sugarbeets (sugar beet; [1]): 0
Sugarbeets plant response rating (sugar beet; [2]): 5
Sugarbeets plant response rating (sugar beet; [3]): 0
Sugarbeets plant response rating (sugar beet; [4]): 0
Sugarbeets plant response rating (sugar beet; [5]): 2
Plant response rating, Redroot pigweed (pigweed; [1]): 2
Redroot pigweed plant response rating (pigweed; [7]): 6
Redroot pigweed plant response rating (pigweed; [2]): 8
Redroot pigweed plant response rating (pigweed; [3]): 0
Redroot pigweed plant response rating (pigweed; [4]): 0
Redroot pigweed plant response rating (pigweed; [5]): 6
Plant response rating, Blackgrass (blackgrass; [1]): 0
Blackgrass plant response rating (blackgrass; [7]): 2
Blackgrass plant response rating (blackgrass; [2]): 6
Blackgrass plant response rating (blackgrass; [8]): 7
Blackgrass plant response rating (blackgrass; [3]): 0
Blackgrass plant response rating (blackgrass; [4]): 0
Blackgrass plant response rating (blackgrass; [5]): 5
Plant response rating, Soybean (soybean; [1]): 4
Soybean plant response rating (soybean; [2]): 5
Soybean plant response rating (soybean; [3]): 4
Soybean plant response rating (soybean; [4]): 4
Soybean plant response rating (soybean; [5]): 5
Soybean plant response rating (soybean; [6]): 5
Plant response rating, Wheat (wheat; [1]): 0
Wheat plant response rating (wheat; [2]): 0
Wheat plant response rating (wheat; [3]): 0
Wheat plant response rating (wheat; [4]): 0
Wheat plant response rating (wheat; [5]): 0
Plant response rating, Rape (rape; [1]): 3
Rape plant response rating (rape; [7]): 3
Rape plant response rating (rape; [2]): 6
Rape plant response rating (rape; [3]): 0
Rape plant response rating (rape; [4]): 0
Rape plant response rating (rape; [5]): 5
Plant response rating, Corn (corn; [1]): 0
Corn plant response rating (corn; [7]): 0
Corn plant response rating (corn; [2]): 1
Corn plant response rating (corn; [8]): 0
Corn plant response rating (corn; [3]): 0
Corn plant response rating (corn; [4]): 0
Corn plant response rating (corn; [5]): 1
Corn plant response rating (corn; [6]): 0
Plant response rating, Cocklebur (cocklebur; [1]): 0
Cocklebur plant response rating (cocklebur; [7]): 0
Cocklebur plant response rating (cocklebur; [2]): 5
Cocklebur plant response rating (cocklebur; [8]): 0
Cocklebur plant response rating (cocklebur; [3]): 0
Cocklebur plant response rating (cocklebur; [4]): 0
Cocklebur plant response rating (cocklebur; [5]): 0
Cocklebur plant response rating (cocklebur; [6]): 0
Plant response rating, Crabgrass (crabgrass; [1]): 1
Crabgrass plant response rating (crabgrass; [7]): 4
Crabgrass plant response rating (crabgrass; [2]): 9
Crabgrass plant response rating (crabgrass; [8]): 10
Crabgrass plant response rating (crabgrass; [3]): 6
Crabgrass plant response rating (crabgrass; [4]): 6
Crabgrass plant response rating (crabgrass; [5]): 9
Crabgrass plant response rating (crabgrass; [6]): 10
Plant response rating, Velvetleaf (velvetleaf; [1]): 2
Velvetleaf plant response rating (velvetleaf; [2]): 6
Velvetleaf plant response rating (velvetleaf; [3]): 0
Velvetleaf plant response rating (velvetleaf; [4]): 0
Velvetleaf plant response rating (velvetleaf; [5]): 6
Velvetleaf plant response rating (velvetleaf; [6]): 0

Reference: patent US6737383B1, “Herbicidal oxadiazolidines” (priority 1999, dated 2004)
